Where only a bound is given, the exact number is not on record here.

The target of one assay is T1, Mushroom tyrosinase (Agaricus bisporus, UniProt O42713+Q00024+C7FF04+C7FF05). The experiment in a line: Inhibition of mushroom tyrosinase using L-DOPA as substrate preincubated for 10 mins followed by substrate addition by absorbance based analysis.
`O=c1oc2ccccc2cc1C1=NN(c2nc(-c3ccc(Br)cc3)cs2)C(c2ccccc2O)C1` (stereo unspecified): the IC50 – broadly, the point on the concentration scale where inhibition reaches its midpoint – worked out at 96 nM. The compound `COc1ccc(C2CC(c3cc4ccccc4oc3=O)=NN2c2nc(-c3ccc(Br)cc3)cs2)cc1[N+](=O)[O-]` (stereo unspecified) came in with an IC50 of 870 nM. Compared with the last compound, the IC50 is about 9.1-fold higher. Same read-out and setting: the figure for `COc1cc(OC)c(/C=N/c2nnc(S)s2)c(OC)c1` is 900 nM; for `Sc1nnc(/N=C/c2ccccc2)s1` it is greater than 20000 nM; for `O=c1oc2ccccc2cc1C1=NN(c2nc(-c3ccc(Br)cc3)cs2)C(c2cc([N+](=O)[O-])ccc2Cl)C1` (stereo unspecified) it is 28 nM. `O=c1oc2ccccc2cc1C1=NN(c2nc(-c3ccc(Br)cc3)cs2)C(c2ccc(O)cc2)C1` (stereo unspecified): the IC50 is 230 nM. As to `CN(C)c1ccc(C2CC(c3cc4ccccc4oc3=O)=NN2c2nc(-c3ccc(Br)cc3)cs2)cc1` (stereo unspecified), the IC50 worked out at 220 nM. For `Sc1nnc(/N=C/c2cccc(Cl)c2)s1`, the IC50 was 4750 nM. On the same count and under the same terms, the figure for `O=c1oc2ccccc2cc1C1=NN(c2nc(-c3ccc(Br)cc3)cs2)C(c2cc([N+](=O)[O-])ccc2O)C1` (stereo unspecified) is 910 nM. On the same count and under the same terms, the figure for `O=[N+]([O-])c1ccccc1/C=N/c1nnc(S)s1` is 670 nM.

`Oc1ccc(Br)cc1/C=N/c1nnc(S)s1` gave an IC50 of 1970 nM. Same read-out and setting: the figure for `Oc1ccc(Cl)cc1/C=N/c1nnc(S)s1` is 1710 nM; for `CC(C)(C)c1ccc(/C=N/c2nnc(S)s2)cc1` it is 1400 nM. As to `O=c1oc2ccccc2cc1C1=NN(c2nc(-c3ccc(Br)cc3)cs2)C(c2ccc(Br)cc2)C1` (stereo unspecified), the IC50 came out at 52 nM.

As to `COc1ccc(C2CC(c3cc4ccccc4oc3=O)=NN2c2nc(-c3ccc(Br)cc3)cs2)cc1O` (stereo unspecified), the IC50 is 83 nM. On the same count and under the same terms, the figure for `COc1cc(/C=N/c2nnc(S)s2)cc(OC)c1O` is 473 nM. On the same count and under the same terms, the figure for `O=c1oc2ccccc2cc1C1=NN(c2nc(-c3ccc(Br)cc3)cs2)C(c2ccco2)C1` (stereo unspecified) is 380 nM; for `Sc1nnc(/N=C/c2ccc(Cl)c(Cl)c2)s1` it is 3620 nM. The same measure, in the same setting: the figure for `Fc1ccccc1/C=N/c1nnc(S)s1` is 760 nM; for `COc1cccc(C2CC(c3cc4ccccc4oc3=O)=NN2c2nc(-c3ccc(Br)cc3)cs2)c1O` (stereo unspecified) it is 37 nM.

Compound `O=c1oc2ccccc2cc1C1=NN(c2nc(-c3ccc(Br)cc3)cs2)C(c2ccc(Cl)cc2)C1` (stereo unspecified) gave an IC50 of 460 nM. `O=c1oc2ccccc2cc1C1=NN(c2nc(-c3ccc(Br)cc3)cs2)C(c2ccccc2)C1` (stereo unspecified): the IC50 turned out to be 260 nM. Consider `COc1ccccc1/C=N/c1nnc(S)s1`, for which the IC50 was 730 nM. Same read-out and setting: the figure for `Oc1ccccc1/C=N/c1nnc(S)s1` is 780 nM; for `O=c1oc2ccccc2cc1C1=NN(c2nc(-c3ccc(Br)cc3)cs2)C(c2ccc([N+](=O)[O-])cc2)C1` (stereo unspecified) it is 130 nM. Still for that read-out and setting: the figure for `COc1cc(/C=N/c2nnc(S)s2)cc(OC)c1` is 5350 nM.

The compound `O=c1oc2ccccc2cc1C1=NN(c2nc(-c3ccc(Br)cc3)cs2)C(c2ccc(OCc3ccccc3)cc2)C1` (stereo unspecified) yielded an IC50 of 970 nM. Compared with the last compound, the IC50 is about 5.5-fold lower. Same read-out and setting: the figure for `O=c1oc2ccccc2cc1C1=NN(c2nc(-c3ccc(Br)cc3)cs2)C(C2=CC3C=CC=CC3N2)C1` (stereo unspecified) is 17 nM.

`CCn1c2ccccc2c2cc(C3CC(c4cc5ccccc5oc4=O)=NN3c3nc(-c4ccc(Br)cc4)cs3)ccc21` (stereo unspecified) came in with an IC50 of 100 nM. Against the preceding compound, the IC50 is about 5.9-fold higher.

As to `S=c1[nH]nc(/N=C/c2ccc(Cl)cc2)s1`, the IC50 came to 2460 nM.

The target of another assay is T1, Mushroom tyrosinase. Kind of assay: Inhibition of mushroom tyrosinase using L-DOPA as substrate preincubated for 10 mins followed by substrate addition and measured after 20 mins by absorbance based analysis.
For `Cc1ccc(C)c(NC(=O)CSc2nnc(Cc3csc(N)n3)n2-c2ccccc2)c1`, the IC50 was 58 nM. Still for that read-out and setting: the figure for `CCOc1ccc(NC(=O)CSc2nnc(Cc3csc(N)n3)n2-c2ccccc2)cc1` is 170 nM; for `O=C1C=C(Cn2cc(COc3cccc(F)c3)nn2)C(=O)C=C1O` it is 1070 nM. In turn, `COc1cc(OCc2cn(CC3=CC(=O)C(O)=CC3=O)nn2)cc(OC)c1OC` displayed an IC50 of 870 nM. Still for that read-out and setting: the figure for `O=C1C=C(Cn2cc(COc3ccccc3)nn2)C(=O)C=C1O` is 1330 nM; for `Cc1cccc(C)c1NC(=O)CSc1nnc(Cc2csc(N)n2)n1-c1ccccc1` it is 51 nM; for `O=C1OC(c2cccc(Cl)c2)=NC(=S)C1C1N=NN=N1` (stereo unspecified) it is 71 nM. On the same count and under the same terms, the figure for `Cc1ccc(NC(=O)CSc2nnc(Cc3csc(N)n3)n2-c2ccccc2)c(C)c1` is 54 nM; for `Nc1nc(Cc2nnc(SCC(=O)Nc3ccccc3)n2-c2ccccc2)cs1` it is 130 nM; for `O=C1C=C(Cn2cc(COc3ccc([N+](=O)[O-])cc3)nn2)C(=O)C=C1O` it is 520 nM. On the same count and under the same terms, the figure for `CCc1ccc(NC(=O)CSc2nnc(Cc3csc(N)n3)n2-c2ccccc2)cc1` is 120 nM; for `COc1cc(OC)cc(OCc2cn(CC3=CC(=O)C(O)=CC3=O)nn2)c1` it is 740 nM; for `Cc1ccc(C2=NC(=S)C(c3nn[nH]n3)C(=O)O2)cc1` (stereo unspecified) it is 310 nM. For the compound `O=C1OC(c2cc([N+](=O)[O-])cc([N+](=O)[O-])c2)=NC(=S)C1c1nn[nH]n1` (stereo unspecified), the IC50 was 75 nM.

The compound `O=C1OC(c2cccc([N+](=O)[O-])c2)=NC(=S)C1C1N=NN=N1` (stereo unspecified) came in with an IC50 of 60 nM. On the same count and under the same terms, the figure for `O=C1OC(c2ccccc2Cl)=NC(=S)C1c1nn[nH]n1` (stereo unspecified) is 88 nM. In turn, `COc1cccc(OC)c1C1=NC(=S)C(c2nn[nH]n2)C(=O)O1` (stereo unspecified) returned a concentration for half-maximal inhibition (IC50) of 200 nM. Turning to `Cc1cc(C)cc(NC(=O)CSc2nnc(Cc3csc(N)n3)n2-c2ccccc2)c1`, the half-maximal inhibitory concentration (IC50) turned out to be 240 nM. Compound `Cc1cccc(NC(=O)CSc2nnc(Cc3csc(N)n3)n2-c2ccccc2)c1C` came in with an IC50 of 2010 nM. Against the preceding compound, the IC50 is about 8.4-fold higher. In turn, `COc1ccc(C2=NC(=S)C(C3N=NN=N3)C(=O)O2)cc1` (stereo unspecified) displayed an IC50 of 73 nM. On the same count and under the same terms, the figure for `Cc1ccc(NC(=O)CSc2nnc(Cc3csc(N)n3)n2-c2ccccc2)cc1C` is 110 nM; for `CCc1ccccc1NC(=O)CSc1nnc(Cc2csc(N)n2)n1-c1ccccc1` it is 65 nM.

Compound `O=C1C=C(Cn2cc(COc3ccc(Cl)cc3Cl)nn2)C(=O)C=C1O` yielded a half-maximal inhibitory concentration (IC50) of 1120 nM. Compared with the last compound, the IC50 is about 17-fold higher. The compound `COc1ccc(OCc2cn(CC3=CC(=O)C(O)=CC3=O)nn2)cc1` returned an IC50 of 1240 nM. This IC50 and that of the compound before are within 1.5-fold of each other. `O=C1C=C(Cn2cc(COc3ccc(F)cc3)nn2)C(=O)C=C1O`: the IC50 came out at 880 nM. This IC50 and that of the compound before are within 1.5-fold of each other.

Turning to `O=C1C=C(Cn2cc(COc3ccc(Br)cc3)nn2)C(=O)C=C1O`, the IC50 amounted to 6800 nM.

`O=C1C=C(Cn2cc(COc3cccc(Cl)c3)nn2)C(=O)C=C1O` had an IC50 of 990 nM. Turning to `O=C1OC(c2ccc([N+](=O)[O-])cc2)=NC(=S)C1c1nn[nH]n1` (stereo unspecified), the IC50 worked out at 81 nM. `N#Cc1ccc(OCc2cn(CC3=CC(=O)C(O)=CC3=O)nn2)cc1` displayed an IC50 of 6290 nM. This IC50 lies about 78-fold higher than the previous one. On the same count and under the same terms, the figure for `O=C1OC(c2ccc(Cl)cc2)=NC(=S)C1c1nn[nH]n1` (stereo unspecified) is 290 nM.

In turn, `O=C1C=C(Cn2cc(COc3ccc(Cl)cc3)nn2)C(=O)C=C1O` displayed an IC50 of 690 nM. Compared with the last compound, the IC50 is about 2.4-fold higher. The same measure, in the same setting: the figure for `CC(=O)Nc1ccc(OCc2cn(CC3=CC(=O)C(O)=CC3=O)nn2)cc1` is 2640 nM; for `Cc1ccccc1NC(=O)CSc1nnc(Cc2csc(N)n2)n1-c1ccccc1` it is 15 nM. The same measure, in the same setting: the figure for `CCc1cccc(C)c1NC(=O)CSc1nnc(Cc2csc(N)n2)n1-c1ccccc1` is 190 nM; for `Nc1nc(Cc2nnc(SCC(=O)NCCc3ccccc3)n2-c2ccccc2)cs1` it is 16 nM.

Regarding `O=C1OC(c2ccc(Cl)cc2Cl)=NC(=S)C1c1nn[nH]n1` (stereo unspecified), the IC50 is 47 nM. As to `O=C1C=C(Cn2cc(COc3ccc(CO)cc3)nn2)C(=O)C=C1O`, the IC50 was found to be 1320 nM. On the same count and under the same terms, the figure for `Nc1nc(Cc2nnc(SCC(=O)NCc3ccccc3)n2-c2ccccc2)cs1` is 1010 nM.

Another assay has as its target T1, Mushroom tyrosinase. Kind of assay: Inhibition of mushroom tyrosinase incubated for 10 mins by spectrophotometric analysis.
Compound `CCCCCn1nc(-c2ccccc2)n(CC(=O)NNC(=S)Nc2cc(C(F)(F)F)cc(C(F)(F)F)c2)c1=O` came in with an IC50 greater than 20000 nM. As to `CCCCCn1nc(-c2ccccc2)n(CC(=O)NNC(=S)Nc2ccc(Br)cc2)c1=O`, the IC50 amounted to 19 nM. Still for that read-out and setting: the figure for `CCCCCn1nc(-c2ccccc2)n(CC(=O)NNC(=O)Nc2ccc(F)cc2)c1=O` is greater than 20000 nM; for `CCCCCn1nc(-c2ccccc2)n(CC(=O)NNC(=O)Nc2ccc(Cl)cc2Cl)c1=O` it is 1.62 nM.

`CCCCCn1nc(-c2ccccc2)n(CC(=O)NNC(=S)Nc2ccccc2Cl)c1=O` yielded an IC50 of 4680 nM. On to `CCCCCn1nc(-c2ccccc2)n(CC(=O)NNC(=O)Nc2cc(C(F)(F)F)cc(C(F)(F)F)c2)c1=O`, for which the IC50 came to 1.97 nM. On the same count and under the same terms, the figure for `CCCCCn1nc(-c2ccccc2)n(CC(=O)NNC(=S)Nc2ccc(F)cc2)c1=O` is 14 nM; for `CCCCCn1nc(-c2ccccc2)n(CC(=O)NNC(=S)Nc2ccc(C(F)(F)F)cc2)c1=O` it is 1490 nM. Take `CCCCCn1nc(-c2ccccc2)n(CC(=O)NNC(=S)Nc2ccccc2Br)c1=O`: the IC50 is greater than 20000 nM.

On to `CCCCCn1nc(-c2ccccc2)n(CC(=O)NNC(=O)Nc2cccc(C(F)(F)F)c2)c1=O`, for which the IC50 was 1.65 nM.

`CCCCCn1nc(-c2ccccc2)n(CC(=O)NNC(=O)Nc2cccc(F)c2)c1=O`: the IC50 is greater than 20000 nM.

In the case of `CCCCCn1nc(-c2ccccc2)n(CC(=O)NNC(=S)Nc2cccc(Br)c2)c1=O`, the IC50 is greater than 20000 nM. `CCCCCn1nc(-c2ccccc2)n(CC(=O)NNC(=S)Nc2ccc(F)cc2F)c1=O` had an IC50 of 19 nM. This counts as double-digit nanomolar. `CCCCCn1nc(-c2ccccc2)n(CC(=O)NNC(=O)Nc2cc(Cl)cc(Cl)c2)c1=O` yielded an IC50 greater than 20000 nM. Still for that read-out and setting: the figure for `CCCCCn1nc(-c2ccccc2)n(CC(=O)NNC(=O)Nc2ccc(F)cc2F)c1=O` is greater than 20000 nM; for `CCCCCn1nc(-c2ccccc2)n(CC(=O)NNC(=O)Nc2ccccc2Br)c1=O` it is greater than 20000 nM; for `CCCCCn1nc(-c2ccccc2)n(CC(=O)NNC(=O)Nc2ccc(C(F)(F)F)cc2)c1=O` it is greater than 20000 nM. Still for that read-out and setting: the figure for `CCCCCn1nc(-c2ccccc2)n(CC(=O)NNC(=O)Nc2ccccc2Cl)c1=O` is greater than 20000 nM.

For the origin of these results see ChEMBL document CHEMBL5331042, “Azole inhibitors of mushroom and human tyrosinases: Current advances and prospects of drug development for melanogenic dermatological disorders” (Eur J Med Chem, 2022).
